Laboratory results reported in patent publication US20140023602A1, “EXTERNAL PREPARATION FOR SKIN CONTAINING A PHOSPHORYLATED SACCHARIDE” (EZAKI GLICO CO., LTD., priority 2005, published 2014).
Values joined by “and” are separate entries in the source; they are usually repeats but may differ in a detail not shown here. Identical values can stand only once.

Legend:
[1] = tested on: Normal human skin fibroblast cells; experiment: Collagen production by human skin fibroblast, Sircol collagen assay; assay type: cell-based
Experimental: (§1) Normal human skin fibroblast cells were adjusted with 10% D-MEM (manufactured by Invitrogen) to a density of 2.5×10^4 cells per well, and preincubated on the 96-well plate for 24 hours. After removal of the medium, phosphorylated saccharide calcium salt adjusted to a concentration of 1% with 4% D-MEM was added to each well as a test sample, and then the mixture was cultured at 37° C. under 5% CO2 for 72 hours. After the completion of the culture, the amount of collagen in the medium was measured. The amount of collagen was measured by using a Sircol collagen assay Kit (manufactured by Biocolor Ltd.).
(§2) Normal human skin fibroblast cells were adjusted with 10% D-MEM (manufactured by Invitrogen) to a density of 2.5×10^4 cells per well, and preincubated on the 96-well plate for 24 hours. After removal of the medium, phosphorylated saccharide calcium salt adjusted to a concentration of 1% with 4% D-MEM and 0.0044% ascorbic acid as a test sample, or 0.0044% ascorbic acid as a control was added to each well, and then the mixture was cultured at 37° C. under 5% CO2 for 72 hours. After the completion of the culture, the amounts of collagen in the medium and on the cell surface were measured. The amount of collagen was measured by using a Sircol collagen assay Kit (manufactured by Biocolor Ltd.). The collagen on cell surface was measured after pepsin treatment.
as §1, with “potassium” for “calcium”, “then” for “then the mixture was”
as §2, with “phosphorylated saccharide potassium salt adjusted” for “phosphorylated saccharide calcium salt adjusted”, “acid as control was” for “acid as a control was”, “medium and the cell” for “medium and on the cell”

[2] = buffer; for Water retention ratio: Remaining ratio after 1 minute (%): 1 min
Experimental: 0.1% to 1% Aqueous phosphorylated saccharide mineral salt solutions were prepared. Ten μl/paper of the aqueous phosphorylated saccharide mineral salt solution was impregnated into a paper disc (8 mm) [manufactured by Advantech], and the water-retention effect was evaluated by measuring the remaining water over time for 10 minutes under a constant condition. For comparison, 0.1% solution of hyaluronic acid or 1% solution of glycerol, which are known as water retention component, were used. Distilled water was used as a control.

[3] = inorganic chloride as comparison, concentration not given

Water retention ratio: Remaining ratio after 1 minute (%) [2] [%] | Water retention ratio: Remaining ratio after 10 minutes (%) [2] [%] | Compound | induction of collagen production (in words) [1, 3] | also measured
– | – | O=C1O[C@H]([C@@H](O)CO)C(O)=C1O [ascorbic acid] | – | amount of collagen in the medium ([1]; 0.0044% ascorbic acid alone, 72 hours): 55.1 µg/mL and 44.1 µg/mL and 50.1 µg/mL and 52.1 µg/mL; amount of collagen on the cell surface ([1]; 0.0044% ascorbic acid alone, 72 hours, after pepsin treatment): 23.1 µg/mL and 23.0 µg/mL and 21.3 µg/mL; increase of amount of collagen in the medium compared to control well ([1]; 0.0044% ascorbic acid in 4% FBS-DMEM, 72 hours): 1.4 µg
– | – | [Ca+2].[Cl-].[Cl-] [calcium chloride] | no induction of collagen production was observed | –
98.84 | 88.23 | OCC(O)CO [glycerol] | – | –
– | – | [Cl-].[Cl-].[Mg+2] [magnesium chloride] | no significant collagen production induction was observed | –
– | – | [Cl-].[K+] [potassium chloride] | – | induction of the collagen production (amount of collagen) ([1]; inorganic chloride as comparison, concentration not given, 72 hours): 2.2 µg/mL
98.84 | 83.73 | hyaluronic acid | – | –
